Measurements: ChEMBL document CHEMBL5233287, “In Vitro Hypoglycemic Diterpenoids from the Roots of Croton yunnanensis” (J Nat Prod, 2023)
Activity calls are given as the source filed them. The rule behind the calls is not given here.

Assays:
3T3-L1 [1] = test: Hypoglycemic activity in insulin-resistant mouse 3T3-L1 cells assessed as increase in 2-deoxyglucose uptake treated with compound for 10 mins followed by 2-deoxyglucose challenge for 30 mins by liquid scintillation counting analysis; format: functional, cell-based; settings: time 40.0 min
3T3-L1 [2] = test: Insulin sensitizing activity in mouse 3T3-L1 cells assessed as increase in 2-deoxyglucose uptake at 5 to 20 uM treated with compound and insulin for 10 mins followed by 2-deoxyglucose challenge for 30 mins by liquid scintillation counting analysis; format: functional, cell-based; settings: dose 5-20 µM, time 40.0 min

Compound | Activity (3T3-L1 [1]) | Activity (3T3-L1 [2])
COC(=O)[C@H]1C=CC[C@H]2[C@@]13CC[C@@H](C)[C@]21C[C@@H](C2=CC(=O)O[C@H]2OC)O[C@@H]1O3 | Active | –
C=C1CC[C@]23[C@@H](OC(=O)c4ccccc4)O[C@H]4O[C@H](c5ccoc5)C[C@]14[C@H]2CCC(=O)[C@@]3(O)C(=O)OC | Active | Active
COC(=O)C1=CCC[C@@H]2[C@]34C[C@@H](C5=CC(=O)O[C@H]5OC)O[C@@H]3O[C@]12CC[C@H]4C | Active | Active
COC(=O)C1=CCC[C@@H]2[C@]34C[C@@H](c5ccoc5)O[C@@H]3O[C@]12CC[C@H]4C | Active | –
COC(=O)C1=CCC[C@H]2[C@@]13CC[C@@H](C)[C@]21C[C@@H](C2=C[C@@H](OC)OC2=O)O[C@@H]1OC3=O | Active | –
COC(=O)C1=CCC[C@@H]2[C@]34C[C@@H](C5=C[C@@H](OC)OC5=O)O[C@@H]3O[C@]12CC[C@H]4C | Active | –
COC(=O)C1=CCC[C@H]2[C@@]13CC[C@@H](C)[C@]21C[C@@H](C2=CC(=O)O[C@H]2OC)O[C@@H]1O[C@@H]3OC | Active | –
